Experimental data from patent publication US4508704A, “Radioactive metals complexed with phosphonate derivatives of bicycloheptane bis(alkylamines)” (The Dow Chemical Company, priority 1984, dated 1985).

What was measured:
[1] = Biodistribution in several tissues in rats, NaI scintillation counter; format: in vivo; details: 2 hours, ~1 mCi, tail vein
Method: The Tc-complex of Example 1 (50 μl, ~1 mCi) was injected into the tail vein of a series of rats. The animals were killed after 2 hours and the radiation from several tissues was quantitated using a NaI scintillation counter.

[2] = Biodistribution in several tissues in rabbits, NaI scintillation counter; format: in vivo; details: 3 hours after injection, ear vein
Method: The complex of Example 1 was injected in the ear vein of a series of rabbits. The rabbits were killed 3 hours after injection. The radiation of several tissues was quantified by counting using a NaI scintillation counter.

[3] = cited from earlier work

methylenediphosphonate [Tc-MDP]
Percent Dose/Organ, Blood [1]: 0.27 Percent Dose/Organ | Percent Dose/Organ, Skeleton [1]: 39.4 Percent Dose/Organ | Percent Dose/Organ, Urine [1]: 50.9 Percent Dose/Organ | Ratio Bone/blood [1]: 146 | Ratio Bone/muscle [1]: 150 | Ratio Femur/blood [2]: 44 | Ratio Femur/muscle [2]: 114 | radiation in Blood [2]: 0.13 | radiation in Femur [2]: 5.7 | radiation in Liver [2]: 0.11 | radiation in Muscle [2]: 0.05

[85Sr] [Sr-85, Strontium-85]
accumulation by bone ([3]; after intravenous administration): rapidly accumulated by bone | biological half life ([3]; in vivo): ~ 800 days
